We go through five compounds from patent US8338486B2, “Methods for the treatment of CNS-related conditions” (Adamas Pharmaceuticals, Inc., priority 2004, dated 2012).

For data set [1] the following is noted: cited from earlier work; for Tmax / Human PK T½: humans.
For data set [2] the following is noted: humans; cited from earlier work.
The nature of data set [3]: Release profile (cumulative fraction released; USP II Paddle system, water). The data set is classed as physicochemical. As to conditions: memantine-galantamine combination. The text has this: The cumulative fraction is the amount of drug substance released from the formulation matrix to the serum or gut environment (e.g., U.S. Pat. No. 4,839,177) or as measured with a USP II Paddle system using water as the dissolution medium.

As to `CCN(C)C(=O)Oc1cccc([C@H](C)N(C)C)c1` [EXELON ®/Rivastigmine], the “Tmax” value in data set [1] was 1 to 2.5 h. Also, the “Main Dose-Dependent Adverse Event” value in data set [2] was “Nausea, vomiting”.

Take `C/C=C1\[C@H]2C=C(C)C[C@]1(N)c1ccc(=O)[nH]c1C2` [HUPERZINE-A]: in data set [1], the “Human PK T½” value is 4.8 h and the time of peak concentration (Tmax) is 1.3 h.

Turning to `CC12CC3CC(C)(C1)CC(N)(C3)C2` [Memantine, 1-amino-3,5-dimethyladamantane], the cum. fraction in data set [3] (Time 1) is recorded as 0.2; in data set [3] (Time 2), 0.3; in data set [3] (Time 4), 0.4; in data set [3] (Time 8) it was 0.5; in data set [3] (Time 12), 0.6; in data set [3] (Time 16) it was 0.7. Further, the cum. fraction in data set [3] (Time 20) is 0.8; in data set [3] (Time 24) it was 0.9.

With `COc1ccc2c3c1O[C@H]1C[C@@H](O)C=C[C@@]31CCN(C)C2` [REMINYL ®/Galantamine], the T½ entry in data set [1] (head of Table 4) is listed as “T½ = 7 hrs”. Besides, the “Human PK T½” value in data set [1] is 7 h. In data set [1], the time to peak (Tmax) is 1 to 2.5 h. In addition, the cum. fraction in data set [3] (Time 1) was found to be 0.2; in data set [3] (Time 2), 0.3; in data set [3] (Time 4) it was 0.4; in data set [3] (Time 8), 0.5; in data set [3] (Time 12) it was 0.6; in data set [3] (Time 16) it was 0.7. The cum. fraction turned out to be 0.8 in data set [3] (Time 20) and 1.0 in data set [3] (Time 24).

For `CC(N)C12CC3CC(CC(C3)C1)C2` (stereo not drawn) [Rimantadine, 1-(1-aminoethyl)adamantane], the “Dose Dependent Tox” value in data set [2] is given as “Insomnia”.
